Measurements from ChEMBL document CHEMBL5303573, “Mapping human microbiome drug metabolism by gut bacteria and their genes” (Nature, 2019).

Experiments:
[1] = The drug is tested on Escherichia coli strain: BW25113 for biotransformation. The drug concentrations were measured before and after a 12-h incubation by liquid-chromatography-coupled mass spectrometry (LC–MS); conditions: 2 µM
[2] = The drug is tested on Eubacterium hallii strain: DSM3353 for biotransformation. The drug concentrations were measured before and after a 12-h incubation by liquid-chromatography-coupled mass spectrometry (LC–MS); conditions: anaerobutyricum hallii, 2 µM
[3] = The drug is tested on Clostridium sp. strain: fecal isolate for biotransformation. The drug concentrations were measured before and after a 12-h incubation by liquid-chromatography-coupled mass spectrometry (LC–MS); conditions: 2 µM
[4] = The drug is tested on Bacteroides ovatus strain: ATCC8483 for biotransformation. The drug concentrations were measured before and after a 12-h incubation by liquid-chromatography-coupled mass spectrometry (LC–MS); conditions: 2 µM
[5] = The drug is tested on Bacteroides fragilis strain: ATCC43859 for biotransformation. The drug concentrations were measured before and after a 12-h incubation by liquid-chromatography-coupled mass spectrometry (LC–MS); conditions: 2 µM
[6] = The drug is tested on Bacteroides dorei strain: DSM17855 for biotransformation. The drug concentrations were measured before and after a 12-h incubation by liquid-chromatography-coupled mass spectrometry (LC–MS); conditions: phocaeicola dorei, 2 µM
[7] = enterocloster bolteae, 12 h, 2 µM
Description: The drug is tested on Clostridium bolteae strain: ATCCBAA-613 for biotransformation. The drug concentrations were measured before and after a 12-h incubation by liquid-chromatography-coupled mass spectrometry (LC–MS)

[8] = The drug is tested on Ruminococcus gnavus strain: ATCC29149 for biotransformation. The drug concentrations were measured before and after a 12-h incubation by liquid-chromatography-coupled mass spectrometry (LC–MS); conditions: mediterraneibacter gnavus, 2 µM
[9] = The drug is tested on Clostridium asparagiforme strain: DSM15981 for biotransformation. The drug concentrations were measured before and after a 12-h incubation by liquid-chromatography-coupled mass spectrometry (LC–MS); type: ADME; parameters: dose 2 uM, timepoint 0 vs 12 hours; conditions: enterocloster asparagiformis, 2 µM
[10] = The drug is tested on Parabacteroides merdae strain: ATCC43184 for biotransformation. The drug concentrations were measured before and after a 12-h incubation by liquid-chromatography-coupled mass spectrometry (LC–MS); conditions: 2 µM
[11] = The drug is tested on Bacteroides pectinophilus strain: ATCC43243 for biotransformation. The drug concentrations were measured before and after a 12-h incubation by liquid-chromatography-coupled mass spectrometry (LC–MS); conditions: 2 µM
[12] = bacteroides stercoris, 12 h, 2 µM
Description: The drug is tested on Bacteroides stercoris strain: ATCC43183 for biotransformation. The drug concentrations were measured before and after a 12-h incubation by liquid-chromatography-coupled mass spectrometry (LC–MS)

[13] = The drug is tested on Coprococcus comes strain: ATCC27758 for biotransformation. The drug concentrations were measured before and after a 12-h incubation by liquid-chromatography-coupled mass spectrometry (LC–MS); type: ADME; parameters: dose 2 uM, timepoint 0 vs 12 hours; conditions: 2 µM
[14] = The drug is tested on Eubacterium rectale strain: ATCC33656 for biotransformation. The drug concentrations were measured before and after a 12-h incubation by liquid-chromatography-coupled mass spectrometry (LC–MS); conditions: agathobacter rectalis, 2 µM
[15] = The drug is tested on Eubacterium ventriosum strain: ATCC27560 for biotransformation. The drug concentrations were measured before and after a 12-h incubation by liquid-chromatography-coupled mass spectrometry (LC–MS); type: ADME; parameters: dose 2 uM, timepoint 0 vs 12 hours; conditions: 2 µM
[16] = parabacteroides distasonis, 12 h, 2 µM
Description: The drug is tested on Parabacteroides distasonis strain: ATCC8503 for biotransformation. The drug concentrations were measured before and after a 12-h incubation by liquid-chromatography-coupled mass spectrometry (LC–MS)

[17] = The drug is tested on Bifidobacterium longum subsp. Infantis strain: CCUG52486 for biotransformation. The drug concentrations were measured before and after a 12-h incubation by liquid-chromatography-coupled mass spectrometry (LC–MS); conditions: 2 µM
[18] = The drug is tested on Ruminococcus lactaris strain: ATCC29176 for biotransformation. The drug concentrations were measured before and after a 12-h incubation by liquid-chromatography-coupled mass spectrometry (LC–MS); conditions: 2 µM
[19] = The drug is tested on Blautia hansenii strain: DSM20583 for biotransformation. The drug concentrations were measured before and after a 12-h incubation by liquid-chromatography-coupled mass spectrometry (LC–MS); conditions: 2 µM

Row | SMILES | Bacterial Biotransformation [1] | Bacterial Biotransformation [2] | Bacterial Biotransformation [3] | Bacterial Biotransformation [4] | Bacterial Biotransformation [5] | Bacterial Biotransformation [6] | Bacterial Biotransformation [7] | Bacterial Biotransformation [8] | Bacterial Biotransformation [9] | Bacterial Biotransformation [10] | Bacterial Biotransformation [11] | Bacterial Biotransformation [12] | Bacterial Biotransformation [13] | Bacterial Biotransformation [14] | Bacterial Biotransformation [15] | Bacterial Biotransformation [16] | Bacterial Biotransformation [17] | Bacterial Biotransformation [18] | Bacterial Biotransformation [19]
1 | C#C[C@]1(O)CC[C@H]2[C@@H]3CCC4=CC(=O)CC[C@@H]4[C@H]3CC[C@@]21CC [LEVONORGESTREL] | Compound NOT metabolized | Compound NOT metabolized | Compound metabolized | Compound NOT metabolized | Compound metabolized | Compound metabolized | Compound NOT metabolized | Compound metabolized | Compound NOT metabolized | Compound metabolized | Compound NOT metabolized | Compound metabolized | Compound NOT metabolized | Compound NOT metabolized | Compound NOT metabolized | Compound metabolized |  |  | 
2 | OC(Cn1cncn1)(Cn1cncn1)c1ccc(F)cc1F [FLUCONAZOLE] | Compound NOT metabolized |  | Compound metabolized | Compound metabolized |  | Compound metabolized | Compound NOT metabolized | Compound metabolized | Compound NOT metabolized | Compound NOT metabolized | Compound NOT metabolized | Compound metabolized |  |  | Compound NOT metabolized | Compound NOT metabolized | Compound NOT metabolized | Compound NOT metabolized | Compound metabolized
3 | CN1CCN2c3ccccc3Cc3ccccc3C2C1 (stereo unspecified) [MIANSERIN] | Compound NOT metabolized | Compound NOT metabolized |  | Compound NOT metabolized |  | Compound NOT metabolized | Compound NOT metabolized | Compound NOT metabolized | Compound NOT metabolized | Compound NOT metabolized | Compound NOT metabolized | Compound NOT metabolized | Compound NOT metabolized | Compound NOT metabolized | Compound NOT metabolized |  | Compound NOT metabolized | Compound NOT metabolized | Compound NOT metabolized
4 | CCN(CC)CCOC(=O)C(Cc1cccc2ccccc12)CC1CCCO1.O=C(O)C(=O)O (stereo unspecified) [NAFRONYL OXALATE] |  | Compound NOT metabolized |  | Compound NOT metabolized | Compound NOT metabolized |  | Compound NOT metabolized | Compound NOT metabolized | Compound NOT metabolized |  |  | Compound NOT metabolized | Compound NOT metabolized | Compound NOT metabolized | Compound NOT metabolized | Compound NOT metabolized | Compound NOT metabolized | Compound NOT metabolized | Compound metabolized
5 | OCCN(CCO)c1nc(N2CCCCC2)c2nc(N(CCO)CCO)nc(N3CCCCC3)c2n1 [DIPYRIDAMOLE] | Compound NOT metabolized | Compound NOT metabolized | Compound metabolized | Compound NOT metabolized |  | Compound metabolized |  | Compound NOT metabolized | Compound NOT metabolized | Compound metabolized |  | Compound NOT metabolized | Compound NOT metabolized | Compound NOT metabolized | Compound NOT metabolized | Compound NOT metabolized | Compound NOT metabolized |  | Compound metabolized
6 | COCCc1ccc(OCC(O)CNC(C)C)cc1.COCCc1ccc(OCC(O)CNC(C)C)cc1.O=C(O)C(O)C(O)C(=O)O (stereo unspecified) [METOPROLOL TARTRATE] | Compound NOT metabolized | Compound NOT metabolized | Compound NOT metabolized | Compound NOT metabolized | Compound metabolized | Compound NOT metabolized | Compound NOT metabolized | Compound NOT metabolized | Compound NOT metabolized | Compound NOT metabolized | Compound NOT metabolized |  | Compound NOT metabolized | Compound NOT metabolized | Compound NOT metabolized | Compound NOT metabolized | Compound NOT metabolized | Compound NOT metabolized | 
7 | O=C1NCC2(CCN(CCc3ccccc3)CC2)O1 [FENSPIRIDE] | Compound NOT metabolized | Compound NOT metabolized | Compound NOT metabolized | Compound metabolized | Compound metabolized | Compound metabolized | Compound NOT metabolized | Compound NOT metabolized | Compound NOT metabolized |  | Compound NOT metabolized | Compound metabolized | Compound NOT metabolized | Compound NOT metabolized | Compound NOT metabolized |  | Compound NOT metabolized | Compound NOT metabolized | 
8 | COc1ccc2c3c1O[C@H]1C[C@@H](O)C=C[C@@]31CCN(C)C2 [GALANTAMINE] | Compound NOT metabolized | Compound NOT metabolized | Compound NOT metabolized | Compound metabolized | Compound metabolized | Compound NOT metabolized | Compound NOT metabolized | Compound NOT metabolized | Compound NOT metabolized | Compound NOT metabolized | Compound NOT metabolized | Compound NOT metabolized | Compound NOT metabolized |  | Compound NOT metabolized |  |  | Compound NOT metabolized | Compound NOT metabolized
9 | CC1Cc2ccccc2N1NC(=O)c1ccc(Cl)c(S(N)(=O)=O)c1 (stereo unspecified) [INDAPAMIDE] |  | Compound NOT metabolized | Compound NOT metabolized | Compound NOT metabolized |  | Compound NOT metabolized | Compound NOT metabolized | Compound NOT metabolized | Compound NOT metabolized | Compound NOT metabolized | Compound NOT metabolized | Compound NOT metabolized | Compound NOT metabolized | Compound NOT metabolized |  | Compound NOT metabolized | Compound NOT metabolized | Compound NOT metabolized | Compound NOT metabolized
